Measurements: PMC11127902, “Rescuing tri-heteromeric NMDA receptor function: the potential of pregnenolone-sulfate in loss-of-function GRIN2B variants” (Cellular and Molecular Life Sciences: CMLS, 2024)
Like-named read-outs stand apart in the source and are kept apart here.

How the values were obtained:
[1] = system: Pure variant di-heteromeric GluN2A-P552R; set-up: method as in PMID 28095420; settings: glutamate; di-heteromer section; cited from earlier work
[2] = system: Mixed tri-heteromeric GluN2A-wt/ GluN2B-A819T; set-up: method as in PMID 35110392; settings: glutamate; ref 10; cited from earlier work
[3] = system: Pure variant di-heteromeric GluN2B-A819T; set-up: method as in PMID 28377535; settings: glutamate; ref 25; cited from earlier work
[4] = biological target: T1, Purely di-heteromeric GluN2B-G689C (C1/C2) (Rattus norvegicus, UniProt P35439+Q00959+Q00960, A876H/F846L/G689C/G856D/H848F/K857R/M851T/M860L/Q845K/V861L); assay: TEVC in Xenopus oocytes; format: cell-based
T1 construct: expressed in transfected cells; host or cells: Xenopus laevis oocytes, mRNA injection
T1 sequence (Q00960+Q00959 fused with the stated changes, other chains not shown): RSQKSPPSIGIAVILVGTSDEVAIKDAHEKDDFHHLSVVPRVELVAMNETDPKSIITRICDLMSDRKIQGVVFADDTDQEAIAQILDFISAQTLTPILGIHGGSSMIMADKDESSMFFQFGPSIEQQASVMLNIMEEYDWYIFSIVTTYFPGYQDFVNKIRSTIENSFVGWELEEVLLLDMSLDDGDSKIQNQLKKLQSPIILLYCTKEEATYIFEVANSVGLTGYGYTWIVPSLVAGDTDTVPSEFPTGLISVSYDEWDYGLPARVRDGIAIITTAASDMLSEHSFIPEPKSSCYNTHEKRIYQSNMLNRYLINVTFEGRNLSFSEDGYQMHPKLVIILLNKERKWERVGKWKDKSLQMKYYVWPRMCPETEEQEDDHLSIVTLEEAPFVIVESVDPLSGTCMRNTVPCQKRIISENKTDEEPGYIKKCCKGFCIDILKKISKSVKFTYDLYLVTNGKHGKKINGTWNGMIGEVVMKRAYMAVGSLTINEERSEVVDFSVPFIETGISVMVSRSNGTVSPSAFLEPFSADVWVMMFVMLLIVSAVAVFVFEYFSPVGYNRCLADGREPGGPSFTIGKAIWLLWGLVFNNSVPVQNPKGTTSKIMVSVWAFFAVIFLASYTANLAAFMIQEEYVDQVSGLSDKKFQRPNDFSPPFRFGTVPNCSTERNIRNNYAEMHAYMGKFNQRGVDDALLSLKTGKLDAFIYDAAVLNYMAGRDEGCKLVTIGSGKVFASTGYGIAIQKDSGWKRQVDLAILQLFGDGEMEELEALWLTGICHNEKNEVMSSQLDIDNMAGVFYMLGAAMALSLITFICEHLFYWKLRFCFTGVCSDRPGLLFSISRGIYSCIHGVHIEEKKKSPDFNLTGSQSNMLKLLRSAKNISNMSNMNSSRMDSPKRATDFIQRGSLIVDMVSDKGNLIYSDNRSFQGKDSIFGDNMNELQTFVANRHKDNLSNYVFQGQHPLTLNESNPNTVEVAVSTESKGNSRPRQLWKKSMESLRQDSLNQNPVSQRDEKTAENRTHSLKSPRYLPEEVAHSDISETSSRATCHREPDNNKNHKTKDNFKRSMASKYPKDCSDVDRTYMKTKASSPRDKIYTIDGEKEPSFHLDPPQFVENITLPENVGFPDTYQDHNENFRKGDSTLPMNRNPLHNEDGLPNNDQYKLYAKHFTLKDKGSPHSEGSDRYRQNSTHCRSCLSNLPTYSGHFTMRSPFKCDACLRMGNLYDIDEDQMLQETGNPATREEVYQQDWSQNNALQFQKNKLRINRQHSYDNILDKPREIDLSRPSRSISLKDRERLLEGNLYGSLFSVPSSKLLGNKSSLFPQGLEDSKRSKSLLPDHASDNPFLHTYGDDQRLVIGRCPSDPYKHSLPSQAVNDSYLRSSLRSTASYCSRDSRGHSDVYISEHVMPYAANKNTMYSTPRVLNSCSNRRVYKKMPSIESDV
Description: (§1) Aliquots were thawed before each experiment.

[5] = biological target: T2, Purely di-heteromeric GluN2B-G689S (C1/C2) (Rattus norvegicus, UniProt P35439+Q00959+Q00960, A876H/F846L/G689S/G856D/H848F/K857R/M851T/M860L/Q845K/V861L); assay: TEVC in Xenopus oocytes; format: cell-based
T2 construct: expressed in transfected cells; host or cells: Xenopus laevis oocytes, mRNA injection
T2 sequence (Q00960+Q00959 fused with the stated changes, other chains not shown): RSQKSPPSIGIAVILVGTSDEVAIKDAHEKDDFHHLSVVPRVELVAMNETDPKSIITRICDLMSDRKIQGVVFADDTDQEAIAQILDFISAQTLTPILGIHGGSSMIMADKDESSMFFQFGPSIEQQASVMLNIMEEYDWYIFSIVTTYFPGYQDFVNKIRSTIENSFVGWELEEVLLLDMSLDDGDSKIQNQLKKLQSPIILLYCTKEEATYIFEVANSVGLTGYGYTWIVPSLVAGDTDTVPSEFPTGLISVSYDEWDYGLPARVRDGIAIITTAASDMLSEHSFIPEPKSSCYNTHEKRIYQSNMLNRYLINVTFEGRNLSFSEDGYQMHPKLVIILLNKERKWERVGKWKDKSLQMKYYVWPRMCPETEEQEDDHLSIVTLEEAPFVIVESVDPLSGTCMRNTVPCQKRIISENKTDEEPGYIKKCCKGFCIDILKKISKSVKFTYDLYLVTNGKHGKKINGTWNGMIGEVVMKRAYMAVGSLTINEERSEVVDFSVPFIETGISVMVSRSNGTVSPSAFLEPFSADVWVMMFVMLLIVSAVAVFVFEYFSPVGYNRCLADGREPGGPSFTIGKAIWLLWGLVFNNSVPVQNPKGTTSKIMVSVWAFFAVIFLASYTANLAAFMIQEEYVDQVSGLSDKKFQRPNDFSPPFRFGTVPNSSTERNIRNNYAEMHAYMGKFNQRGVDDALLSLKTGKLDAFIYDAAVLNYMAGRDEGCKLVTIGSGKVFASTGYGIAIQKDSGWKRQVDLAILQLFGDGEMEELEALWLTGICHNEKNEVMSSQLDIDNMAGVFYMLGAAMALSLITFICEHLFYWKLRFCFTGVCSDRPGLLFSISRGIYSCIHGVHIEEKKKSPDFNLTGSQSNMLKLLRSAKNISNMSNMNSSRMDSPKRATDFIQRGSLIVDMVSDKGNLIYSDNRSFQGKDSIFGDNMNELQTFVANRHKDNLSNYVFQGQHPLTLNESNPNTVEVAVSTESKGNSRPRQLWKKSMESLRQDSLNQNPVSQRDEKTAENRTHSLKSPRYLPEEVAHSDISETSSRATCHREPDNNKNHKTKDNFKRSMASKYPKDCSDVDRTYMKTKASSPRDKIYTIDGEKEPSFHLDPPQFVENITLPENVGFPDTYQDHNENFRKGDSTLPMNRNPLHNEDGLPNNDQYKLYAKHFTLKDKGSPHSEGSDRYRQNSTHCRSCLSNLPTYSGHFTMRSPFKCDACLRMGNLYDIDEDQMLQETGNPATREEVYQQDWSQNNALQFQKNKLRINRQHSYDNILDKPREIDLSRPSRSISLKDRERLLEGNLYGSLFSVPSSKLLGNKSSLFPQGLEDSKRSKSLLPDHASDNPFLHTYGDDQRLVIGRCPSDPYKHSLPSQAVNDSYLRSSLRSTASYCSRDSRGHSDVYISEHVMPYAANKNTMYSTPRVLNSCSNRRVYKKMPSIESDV
Description: as §1

[6] = biological target: T3, Mixed di-heteromeric GluN2B-wt/GluN2B-G689S (Rattus norvegicus, UniProt P35439+Q00960, G689S); assay: TEVC in Xenopus oocytes; format: cell-based
T3 construct: expressed in transfected cells; host or cells: Xenopus laevis oocytes, mRNA injection
Description: as §1

[7] = biological target: T4, Purely di-heteromeric GluN2B-wt (GluN1-1a-wt + GluN2B-wt-C1/C2) (Rattus norvegicus, UniProt P35439+Q00959+Q00960, A876H/F846L/G856D/H848F/K857R/M851T/M860L/Q845K/V861L); assay: TEVC in Xenopus oocytes; format: cell-based; settings: glutamate dose-response
T4 construct: expressed in transfected cells; host or cells: Xenopus laevis oocytes, mRNA injection
T4 sequence (Q00960+Q00959 fused with the stated changes, other chains not shown): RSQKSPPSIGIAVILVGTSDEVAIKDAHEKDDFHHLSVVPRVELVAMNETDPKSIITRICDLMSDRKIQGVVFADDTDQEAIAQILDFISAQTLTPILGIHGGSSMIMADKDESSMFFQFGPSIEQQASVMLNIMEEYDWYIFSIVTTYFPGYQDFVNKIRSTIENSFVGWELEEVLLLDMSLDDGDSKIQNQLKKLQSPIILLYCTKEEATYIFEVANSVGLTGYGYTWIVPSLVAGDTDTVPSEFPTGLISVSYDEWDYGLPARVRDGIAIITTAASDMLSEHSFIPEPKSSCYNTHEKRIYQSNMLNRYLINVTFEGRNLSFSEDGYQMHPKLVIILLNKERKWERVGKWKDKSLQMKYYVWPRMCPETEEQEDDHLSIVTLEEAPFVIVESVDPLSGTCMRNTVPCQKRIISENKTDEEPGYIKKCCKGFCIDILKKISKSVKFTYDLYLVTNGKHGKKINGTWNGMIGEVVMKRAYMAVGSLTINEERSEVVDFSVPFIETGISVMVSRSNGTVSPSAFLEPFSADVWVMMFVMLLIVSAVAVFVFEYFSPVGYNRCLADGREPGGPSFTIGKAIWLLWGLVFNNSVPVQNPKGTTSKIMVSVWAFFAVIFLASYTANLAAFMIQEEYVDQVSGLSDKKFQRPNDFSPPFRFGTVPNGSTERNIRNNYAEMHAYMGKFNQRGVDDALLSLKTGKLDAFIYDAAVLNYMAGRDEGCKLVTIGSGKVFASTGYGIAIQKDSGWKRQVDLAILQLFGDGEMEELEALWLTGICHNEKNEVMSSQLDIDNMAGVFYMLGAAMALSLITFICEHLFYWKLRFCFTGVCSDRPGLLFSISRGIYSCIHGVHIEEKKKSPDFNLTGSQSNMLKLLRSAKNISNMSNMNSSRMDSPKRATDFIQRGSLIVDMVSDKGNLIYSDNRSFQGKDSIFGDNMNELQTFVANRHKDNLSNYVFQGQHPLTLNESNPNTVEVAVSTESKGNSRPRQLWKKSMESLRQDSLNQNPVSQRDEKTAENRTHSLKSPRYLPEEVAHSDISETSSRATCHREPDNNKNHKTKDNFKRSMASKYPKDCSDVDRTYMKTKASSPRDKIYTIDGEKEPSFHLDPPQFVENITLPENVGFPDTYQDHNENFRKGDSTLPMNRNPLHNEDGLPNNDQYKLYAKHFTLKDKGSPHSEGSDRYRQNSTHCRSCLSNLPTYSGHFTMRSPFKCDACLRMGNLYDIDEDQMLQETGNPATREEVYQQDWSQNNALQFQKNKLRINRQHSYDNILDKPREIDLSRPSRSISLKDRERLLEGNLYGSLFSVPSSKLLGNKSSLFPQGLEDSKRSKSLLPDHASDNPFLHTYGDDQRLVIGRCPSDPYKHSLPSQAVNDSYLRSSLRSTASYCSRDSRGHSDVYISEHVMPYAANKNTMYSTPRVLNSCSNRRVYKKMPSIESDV
Description: as §1

[8] = system: Mixed tri-heteromeric GluN2A-P552R/ GluN2B-wt; set-up: method as in PMID 35110392; settings: glutamate; ref 10; cited from earlier work
[9] = system: Pure variant di-heteromeric GluN2A-L812M; set-up: method as in PMID 24504326; settings: glutamate; ref 39; cited from earlier work
[10] = biological target: Mixed di-heteromeric GluN2B-wt/GluN2B-G689C (Rattus norvegicus, UniProt P35439+Q00960, G689C); assay: TEVC in Xenopus oocytes; settings: glutamate dose-response
Description: (§2) Two electrode voltage clamp (TEVC) recordings were carried out 24–72 h after mRNA injections, as previously described [17, 37]. We use a commercial amplifier (Warner Instruments, USA) and Digitizer (Digidata-1550B; Molecular Devices, USA), controlled by the pClamp10 software (Molecular Devices, USA). Electrode were made by pulling glass capillaries (Narishige, Japan) filled with 3 M KCl, into which we inserted chlorinated silver wires. […] For hERG channel recordings, oocytes were clamped at (− 60) mV for 1 s, followed by a voltage jump to 20 mV for 4 s, and an additional voltage jump to (− 50) mV for 6 s and return to baseline voltage (see Supplementary. 6f), as previously described [53].
(§3) When assessing potentiation by PS, all other solutions also included equal amounts of the DMSO carrier (0.2%).
(§4) Electrophysiology data were analyzed by Clampfit 11.2 (Molecular Devices, USA), plotted using GraphPad 8 or SigmaPlot 11(Systat software, Inc.). […] In all TEVC recordings in oocytes, the responses were normalized to current amplitude obtained from that individual cell. […] All data are shown as mean ± SEM. In all experiments N indicates the number of independent experiments, whereas n indicates the number of cells recorded. In each experiment, data underwent normality test prior to statistical assessment. Normally distributed data were assessed for significance by using paired t-test or one-way ANOVA for multiple group comparison and post hoc Tukey test or Dunnett's test. Similarly, in the case of non-normally distributed data significance was assessed by Mann Whitney test or Kruskal–Wallis ANOVA on ranks test followed by Dunn’s multiple comparison post hoc; n.s., non-significant; *p < 0.05; **p < 0.01; ***p < 0.001. […] Leak expression was evaluated by normalizing the maximal current (Imax) of each ER-retained NMDAR composition to Imax of control group (which was recorded in all experiments). Estimation of activation time constant (τ) for potentiated currents by PS, was performed by fitting PS- potentiated currents with a standard single-exponential function, from which we extracted the time constant (τ).

[11] = system: Mixed di-heteromeric GluN2B-wt/GluN2B-G689C; assay: TEVC in Xenopus oocytes; settings: compared to purely di-heteromeric variant channels
Description: as §2, §3, §4

[12] = system: wt di-heteromeric GluN2B NMDAR; settings: glutamate, cited from earlier work
[13] = system: non-tagged purely di-heteromeric GluN2B-G689S; settings: read-out: Glutamate EC50 (adapted from[16]); non-tagged human receptors; cited from earlier work
[14] = system: Pure variant di-heteromeric GluN2A-M817V; set-up: method as in PMID 28126851; settings: glutamate; ref 91; cited from earlier work
[15] = system: Mixed di-heteromeric GluN2A-wt/GluN2A-M817V; set-up: method as in PMID 28126851; settings: glutamate; ref 91; cited from earlier work
[16] = system: Double Variant Tri-Heteromeric NMDAR (GluN2A-H485A, GluN2B-H486A); set-up: method as in PMID 24607230; settings: glutamate; ref 8; cited from earlier work
[17] = system: Pure variant di-heteromeric GluN2A-L649V; set-up: method as in PMID 35110392; settings: glutamate; ref 10; cited from earlier work
[18] = system: Pure variant di-heteromeric GluN2B-C461F; set-up: method as in PMID 27839871; settings: glutamate; ref 21; cited from earlier work
[19] = system: Pure variant di-heteromeric GluN2B-M818T; set-up: method as in PMID 28377535; settings: glutamate; ref 25; cited from earlier work
[20] = system: Pure variant di-heteromeric GluN2B-A639V; set-up: method as in PMID 35110392; settings: glutamate; ref 10; cited from earlier work
[21] = system: Mixed di-heteromeric GluN2A-wt/GluN2A-L812M; set-up: method as in PMID 24504326; settings: glutamate; ref 39; cited from earlier work
[22] = system: non-tagged purely di-heteromeric GluN2B-G689C; settings: read-out: Glutamate EC50 (adapted from[16]); non-tagged human receptors; cited from earlier work
[23] = system: Mixed tri-heteromeric GluN2A-M817V/ GluN2B-wt; set-up: method as in PMID 35110392; settings: glutamate; ref 10; cited from earlier work
[24] = system: Mixed tri-heteromeric GluN2A-L812M/ GluN2B-wt; set-up: method as in PMID 35110392; settings: glutamate; ref 10; cited from earlier work
[25] = system: wt di-heteromeric GluN2A NMDAR; settings: glutamate, cited from earlier work
[26] = system: Pure variant di-heteromeric GluN2A-H485A; set-up: method as in PMID 24607230; settings: glutamate; ref 8; cited from earlier work
[27] = compared to GluN2B-wt-C1/C2 receptors

In the case of `N[C@@H](CCC(=O)O)C(=O)O` [Glutamate, glutamate], the EC50 [1] is given as 640 nM, the EC50 [2] is given as 710 nM and the EC50 [3] is given as 580 nM. The “increase in the EC50 value” [4, 27] was ~ 2000 fold, the “Hill coefficient (nH)” value ([4]; glutamate dose-response) was 2.04 ± 0.28 (N = 2, n = 13) and the “increase in the EC50 value” [5, 27] was over 3000 fold. The “Hill coefficient (nH)” value ([5]; glutamate dose-response) was 2.45 ± 0.41 (N = 2, n = 9), the “higher (improved) glutamate potency” value ([6]; compared to purely di-heteromeric variant channels) was “~ four-fold” and the “Hill coefficient (nH)” value ([6]; glutamate dose-response) was 1.02 ± 0.10 n.s (N = 1, n = 13). For the same compound, the “Hill coefficient (nH)” value [7] was 0.86 ± 0.29 (N = 6, n = 38), the EC50 [8] was 560 nM and the EC50 [9] was 390 nM. For the same compound, the “Hill coefficient (nH)” value [10] was 0.75 ± 0.08 n.s (N = 6, n = 54), the “higher (improved) glutamate potency” value [11] was “~ four-fold” and the EC50 ([12]; control of GluN2B-E413G) was 900 nM. For the same compound, the EC50 ([12]; ref 8) was 1600 nM, the EC50 [13] was 2.5 ± 0.4 mM and the EC50 [14] was 470 nM. For the same compound, the EC50 [15] was 1100 nM, the EC50 [16] was 730 µM and the EC50 [17] was 50 nM. The EC50 [18] was 290 µM, the EC50 [19] was 370 nM and the EC50 [20] was 280 nM. For the same compound, the EC50 [21] was 1000 nM, the EC50 [22] was 1.5 ± 0.2 mM and the EC50 [23] was 750 nM. For the same compound, the EC50 [24] was 840 nM, the EC50 ([25]; ref 8) was 4.2 µM and the EC50 ([25]; ref 19) was 4.5 µM. For the same compound, the EC50 ([25]; ref 32) was 3.9 µM, the EC50 ([25]; ref 33) was 5.7 µM and the EC50 ([25]; ref 39) was 4 µM. For the same compound, the EC50 ([25]; ref 91) was 3.6 µM and the EC50 [26] was 1.06 mM.
